Test results reported in the supplement of paper PMC6004109.

What was measured:
Conditions in all cases: temperature: 37 °C
[1] = test system: Candida glabrata ZIM 2369 (RPMI); assay: FICI maximum (fractional inhibitory concentration index, Loewe) (dimensionless); higher = less synergy / more antagonism
Procedure, shortened: (§1)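 The values are the minimum or maximum Loewe fractional inhibitory concentration index over the combination surface, each the sum of MIC-combination/MIC-alone ratios. The MIC was MIC50 or MIC90, depending on the drug. Plates followed CLSI M27-A3 checkerboard broth microdilution, using RPMI for clinical isolates and YPD for C. glabrata ATCC 2001 and its derived strain, with 100 µl of 3–5 × 10^3 cells/ml added to 100 µl of drug dilutions. After 48 h at 37 °C, background-subtracted OD600 was read, with at least biological triplicates.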

[2] = test system: Candida glabrata ZIM 2365 (RPMI); assay: as above
Procedure, shortened: as §1

[3] = test system: Saccharomyces cerevisiae ZIM 2255 (RPMI); assay: as above
Procedure, shortened: as §1

[4] = test system: Saccharomyces cerevisiae ZIM 2247 (RPMI); assay: as above
Procedure, shortened: as §1

[5] = test system: Saccharomyces cerevisiae ZIM 2260 (RPMI); assay: as above
Procedure, shortened: as §1

[6] = test system: Saccharomyces cerevisiae ZIM 2558 (RPMI); assay: as above
Procedure, shortened: as §1

[7] = test system: Saccharomyces cerevisiae ZIM 2566 (RPMI); assay: as above
Procedure, shortened: as §1

[8] = test system: Candida glabrata ZIM 2382 (RPMI); assay: as above
Procedure, shortened: as §1

[9] = test system: Candida glabrata ZIM 2344 (RPMI); assay: as above
Procedure, shortened: as §1

[10] = test system: Saccharomyces cerevisiae ZIM 2269 (RPMI); assay: as above
Procedure, shortened: as §1

[11] = test system: Candida glabrata ZIM 2385 (RPMI); assay: as above
Procedure, shortened: as §1

[12] = test system: Candida glabrata ZIM 2389 (RPMI); assay: as above
Procedure, shortened: as §1

[13] = test system: Candida glabrata ZIM 2369 (RPMI); assay: Bliss independence sum of statistically significant ΔE (measured minus predicted growth inhibition) over checkerboard surface (fraction (sum of ΔE; 1 = 100%)); higher = more synergy
[14] = test system: Candida glabrata ZIM 2365 (RPMI); assay: as above
[15] = test system: Saccharomyces cerevisiae ZIM 2255 (RPMI); assay: as above
[16] = test system: Saccharomyces cerevisiae ZIM 2247 (RPMI); assay: as above
[17] = test system: Saccharomyces cerevisiae ZIM 2260 (RPMI); assay: as above
[18] = test system: Saccharomyces cerevisiae ZIM 2558 (RPMI); assay: as above
[19] = test system: Saccharomyces cerevisiae ZIM 2566 (RPMI); assay: as above
[20] = test system: Candida glabrata ZIM 2382 (RPMI); assay: as above
[21] = test system: Candida glabrata ZIM 2344 (RPMI); assay: as above
[22] = test system: Saccharomyces cerevisiae ZIM 2269 (RPMI); assay: as above
[23] = test system: Candida glabrata ZIM 2385 (RPMI); assay: as above
[24] = test system: Candida glabrata ZIM 2389 (RPMI); assay: as above
[25] = test system: Candida glabrata ZIM 2382 (RPMI); assay: FICI minimum (fractional inhibitory concentration index, Loewe) (dimensionless); higher = less synergy / more antagonism
Procedure, shortened: as §1

[26] = test system: Candida glabrata ZIM 2389 (RPMI); assay: as above
Procedure, shortened: as §1

| Compound | FICI maximum [1] | FICI maximum [2] | FICI maximum [3] | FICI maximum [4] | FICI maximum [5] | FICI maximum [6] | FICI maximum [7] | FICI maximum [8] | FICI maximum [9] | FICI maximum [10] | FICI maximum [11] | FICI maximum [12] | Bliss independence sum [13] | Bliss independence sum [14] | Bliss independence sum [15] | Bliss independence sum [16] | Bliss independence sum [17] | Bliss independence sum [18] | Bliss independence sum [19] | Bliss independence sum [20] | Bliss independence sum [21] | Bliss independence sum [22] | Bliss independence sum [23] | Bliss independence sum [24] | FICI minimum [25] | FICI minimum [26] |
| --- | --- | --- | --- | --- | --- | --- | --- | --- | --- | --- | --- | --- | --- | --- | --- | --- | --- | --- | --- | --- | --- | --- | --- | --- | --- | --- |
| C=CC[C@@H]1/C=C(\C)C[C@H](C)C[C@H](OC)[C@H]2O[C@@](O)(C(=O)C(=O)N3CCCC[C@H]3C(=O)O[C@H](/C(C)=C/[C@@H]3CC[C@@H](O)[C@H](OC)C3)[C@H](C)[C@@H](O)CC1=O)[C@H](C)C[C@@H]2OC [tacrolimus] + C[C@@H]1[C@H](O)[C@@H](C)/C=C/C=C/C=C/C=C/C=C/C=C/C=C/[C@H](O[C@@H]2O[C@H](C)[C@@H](O)[C@H](N)[C@@H]2O)C[C@@H]2O[C@](O)(C[C@@H](O)C[C@@H](O)[C@H](O)CC[C@@H](O)C[C@@H](O)CC(=O)O[C@H]1C)C[C@H](O)[C@H]2C(=O)O [amphotericin B] | 1.25 | 0.51 | 0.508 | 0.126 | 0.5 | 0.501 | 0.625 | 1.01 | 1 | 0.501 | 1 | 1 | 4.67 | 2.51 | 11.4 | 20.9 | 9.87 | 9.97 | 8.22 | 0.265 | 7.88 | 19.1 | 7.14 | 0.693 | 0.251 | 0.26 |
| C=CC[C@@H]1/C=C(\C)C[C@H](C)C[C@H](OC)[C@H]2O[C@@](O)(C(=O)C(=O)N3CCCC[C@H]3C(=O)O[C@H](/C(C)=C/[C@@H]3CC[C@@H](O)[C@H](OC)C3)[C@H](C)[C@@H](O)CC1=O)[C@H](C)C[C@@H]2OC [tacrolimus] + OC(Cn1cncn1)(Cn1cncn1)c1ccc(F)cc1F [fluconazole] | 1 | 1 | 1 | 1 | 1 | 1 | 1 | 0.5 | 0.5 | 1 | 1.01 | 1 | 1.98 | 2.21 | 2.75 | 8.81 | 6.04 | 1.84 | 0.935 | 1.68 | 4.23 | 8.35 | 5.34 | 8 | 0.5 | 0.253 |
